Data reported in US20100279327A1, “METHOD OF TREATING DISEASES WITH PARP INHIBITORS” (BiPar Sciences, Inc., priority 2006, published 2010).

Tested on: PARP1 (poly (ADP-ribose) polymerase family, member 1)
Experiment: PARP1 mRNA expression, Affymetrix human genome GeneChip (probe set 208644_at), Diff/X and e-Northern
Conditions: Normal; for PARP1 expression, Experiment Mean: patients taking the medication, signal intensity of 208644_at; for PARP1 Fold change (FC): patients taking vs patients not taking the medication
Source text: GeneChip arrays have been widely used for monitoring mRNA expression in many areas of biomedical research. The high-density oligonucleotide array technology allows researchers to monitor tens of thousands of genes in a single hybridization experiment as they are expressed differently in tissues and cells. The expression profile of a mRNA molecule of a gene is obtained by the combined intensity information from probes in a probe set, which consists of 11-20 probe pairs of oligonucleotides of 25 by in length, interrogating a different part of the sequence of a gene.
The gene expressions were assessed using the Affymetrix human genome genechips (45,000 gene transcripts covering 28,473 UniGene clusters). Approximately 5 μg total RNA from each sample were labeled using high yield transcript labeling kit and labeled RNAs were hybridized, washed, and scanned according to manufacturer's specifications (Affymetrix, Inc., Santa Clara, Calif.). Affymetrix Microarray Suite 5.0 software (MASS) was used to estimate transcript signal levels from scanned images (Affymetrix). The signals on each array were normalized to a trimmed mean value of 500, excluding lowest 2% and highest 2% of the signals. An Affymetrix probe set representing a unique Genbank sequence is referred as a probe or gene hereafter for convenience. To verify any errors in the expressions caused by image defects, the correlation coefficient of each array to an idealized distribution was determined where the idealized distribution is mean of all arrays. The genes are filtered from the remaining arrays using detection P value reported by MASS. The genes having P>0.065 in 95% of the arrays are eliminated and all other signals are included for statistical comparisons of classes.
The PARP1 gene is represented on the HG-U133A array by a single probe set with the identifier W208644_at”. All results in this report were generated based on the MASS expression signal intensities for this probe set and will be referred to as “PARP1”.
The PARP1 gene is represented on the HG-U133A array by a single probe set with the identifier “208644_at”. All results in this report were generated based on the MASS expression signal intensities for this probe set and will be referred to as “PARP1”. In addition, the seven genes, BRCA1, BRCA2, RAD51, MRE11, p53, PARP2 and MUCIN 16, are represented on the HG-U133A/B array set by 11 informative probe sets. Three probe sets were excluded from this analysis because they were considered to be non-responsive on the array.
RNA is evaluated for quality and integrity (via Agilent Bioanalyzer derived […] ratio and RNA integrity number (RIN)), purity (via absorbance ratio at A260/A280), and quantity (via absorbance at A260 or alternative assay (i.e. ribogreen)), Quantity and purity of cRNA synthesis product is assessed using UV absorbance. Quality of cRNA synthesis is assessed using either the Agilent Bioanalyzer or a MOPS agarose gel. Array quality is evaluated using a proprietary high throughput application by which arrays are evaluated against several strict objective standards such as 5′/3′ GAPDH ratio, signal/noise ratio. and background as well as over thirty additional metrics (e.g. outlier, vertical variance). Data generated throughout the process is managed within the quality system to ensure data integrity of the data.
23, 122, and 57 pathologically normal tissue samples were used to determine baseline expression of the PARP1 gene in endometroid, lung, and prostate tissue, respectively. The mean and 90%, 95%, 99%, and 99.9% upper confidence limits for an individual predicted value (UCLs) were calculated. Because we are assessing the likelihood that individual samples external to the normal set are within the baseline distribution, the prediction interval, rather than the confidence interval for the mean, was selected to estimate the expected range for future individual measurements. […]

[1] = Stomach, positive = up-regulated, negative = down-regulated
[2] = Superior Temporal Gyrus (Brodmann Area 22)

## CC(C)c1c(C(=O)Nc2ccccc2)c(-c2ccccc2)c(-c2ccc(F)cc2)n1CC[C@@H](O)C[C@@H](O)CC(=O)O [Atorvastatin]
Stomach
  PARP1 expression, Experiment Mean: 176.85
[1]
  PARP1 Fold change (FC): −1.24

## CC(=O)Nc1ccc(O)cc1 [Acetaminophen]
[2]
  PARP1 expression, Experiment Mean: 290.49
  PARP1 Fold change (FC): 1.28

## Estrogens
Stomach
  PARP1 expression, Experiment Mean: 228.75
[1]
  PARP1 Fold change (FC): 1.27

## CC(C)NCC(O)COc1ccc(CC(N)=O)cc1 (centres unmarked) [Atenolol]
Ovary
  PARP1 expression, Experiment Mean: 138.57
Ovary, negative = down-regulated
  PARP1 Fold change (FC): −1.22
